Laboratory results as given in article PMC10254233, “Synthesis and In Vitro Biological Evaluation of p-Carborane-Based Di-tert-butylphenol Analogs” (Molecules, 2023).

Tests used:
[1] = biological target: T1, ovine COX-1 (Ovis aries, UniProt P05979); assay: COX Fluorescent Inhibitor Screening Assay, COX-1; format: biochemical; conditions: in duplicate
T1 construct: purchased Cayman Chemical Company
T1 sequence (P05979 25-600): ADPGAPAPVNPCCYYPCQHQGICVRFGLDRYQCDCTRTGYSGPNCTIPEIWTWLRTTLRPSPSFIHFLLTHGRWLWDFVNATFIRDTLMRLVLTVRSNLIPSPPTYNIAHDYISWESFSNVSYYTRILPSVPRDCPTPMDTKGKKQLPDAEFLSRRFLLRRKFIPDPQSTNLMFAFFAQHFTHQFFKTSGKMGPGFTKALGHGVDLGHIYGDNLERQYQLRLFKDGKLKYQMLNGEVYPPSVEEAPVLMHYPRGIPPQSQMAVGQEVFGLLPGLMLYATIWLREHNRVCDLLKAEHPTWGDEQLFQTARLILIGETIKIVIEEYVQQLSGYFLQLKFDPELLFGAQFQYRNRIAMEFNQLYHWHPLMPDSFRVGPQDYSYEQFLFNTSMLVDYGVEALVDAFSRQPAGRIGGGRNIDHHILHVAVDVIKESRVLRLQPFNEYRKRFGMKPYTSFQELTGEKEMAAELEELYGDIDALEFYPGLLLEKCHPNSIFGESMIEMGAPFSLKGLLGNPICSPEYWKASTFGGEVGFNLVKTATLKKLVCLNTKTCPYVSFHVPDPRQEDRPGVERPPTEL
Experimental: COX inhibition activity against ovine COX-1 and human COX-2 was determined using the fluorescence-based COX assay COX Fluorescent Inhibitor Screening Assay Kit (Cayman Chemical Company, Ann Arbor, MI, USA) according to the manufacturer’s instructions as previously reported by us. All compounds were screened at a concentration of 100 µM in duplicate.

[2] = system: primary peritoneal exudate cells; assay: Viability of primary peritoneal exudate cells, CV assay; format: cell-based; conditions: 72 h, cells from healthy mice
Experimental: All cells were kept at 37 °C in a humidified atmosphere with 5% CO2.
Primary peritoneal exudates cells (PEC) isolated from C57BL/6 mice were used to estimate the selec-
Mice were obtained from the animal facility at the Institute for Biological Research “Siniša Stanković” - National Institute of the Republic of Serbia, University of Belgrade (Belgrade, Serbia). PEC were cultivated in HEPES-buffered (HEPES = 4-
5% heat-inactivated fetal bovine serum (FBS) and antibiotics under standard growth conditions (37 °C, 5% CO2). For viability determination cells were seeded at a density of 2 x 10^5 cells/well in 96-well plates.
the indicated concentrations for 72 h. Cell viability was determined by the CV test. The data are presented as a mean ± SD from one repre-
sentative out of three independent experiments. *p<0.05 refer to untreated cultures.

[3] = system: HCT116 cells; assay: Cell proliferation assay (CFSE staining); format: cell-based, human; conditions: HCT116, IC50 dose, 72 h, compared to R-830
[4] = system: HCT116 cells; assay: Acridine orange (AO) staining for autophagy; format: cell-based, human; conditions: HCT116, IC50 dose, 72 h
Description: Apostat staining confirmed that apoptosis was in correlation with the activation of caspases (Figure 3C). […] The […] production of reactive oxygen species explains the observed effects of the applied treatments, namely inhibition of proliferation and induction of apoptosis (Figure 3E). It is widely accepted that drug-mediated hyperproduction of reactive oxygen species that are not buffered by cellular anti-oxidative protection is responsible for cell death induction. […] The described feature is acquired during disease progression, and it is tightly connected with abnormal blood supply and a hypoxic microenvironment. Therefore, elimination of these molecules results in a rapid decrease in cell viability. […]
Non-adherent cells were removed two hours after seeding and treatment was applied. Cell viability was determined after 72 h using a crystal violet (CV) assay. […]
and R-830-Cb (50 μM) for 72 h. […] After 15 min incubation at room temperature (RT) protected from light the cells were resuspended in AnnV-binding buffer and analysed using flow cytom-etry. HCT116 cells were incubated with pan-caspase inhibitor Apostat for 30 min at 37 °C to determine whether detected apoptosis was mediated by caspase activation. […]

[5] = Lipophilicity logD7.4 by HPLC; conditions: pH 7.4, HPLC method

| logD7.4, HPLC [5] | Substance | % Inhibition at 100 µM COX-1 [1] | viability of primary peritoneal exudate cells [2] | cell division (CFSE) [3] | autophagy (AO staining) [4] |
| --- | --- | --- | --- | --- | --- |
| 1.50 | (3E)-1-Hydroxy-12-(methylene-[1′-methoxypyrrolidine-2′-one])-1,12-dicarba-closo-dodecaborane(12) [Compound E-5110-Cb] | n.i. (n.i. = no inhibition (%inhibition below 5%)) |  |  |  |
| 1.88 | (3E)-1-Hydroxy-12-(methylene-[2′-ethylisothiazolidine-1′,1′-dioxide])-1,12-dicarba-closo-dodecaborane(12) [Compound S-2474-Cb] | n.i. (n.i. = no inhibition (%inhibition below 5%)) |  |  |  |
| 1.87 | (3E)-1-Hydroxy-12-(methylene-[dihydrofurane-2′(3H)-one])-1,12-dicarba-closo-dodecaborane(12) [KME-4-Cb] | 26% |  |  |  |

| Substance | logD7.4, HPLC [5] | % Inhibition at 100 µM COX-1 [1] | viability of primary peritoneal exudate cells [2] | cell division (CFSE) [3] | autophagy (AO staining) [4] |
| --- | --- | --- | --- | --- | --- |
| 1-Hydroxy-12-(thiophen-2′-carbonyl)-1,12-dicarba-closo-dodecaborane(12) [Compound R-830-Cb] | 2.37 | 18% | completely non-toxic in the applied dose range | more severely affected | intense autophagy |
